Test results published in patent US11980616B2, “Treating liver disease by selectively eliminating senescent cells” (Buck Institute for Research on Aging, priority 2014, dated 2024).

How the values were obtained:
[1] = system: non-senescent foreskin fibroblasts (Non Sen HCA2); experiment: Cell count toxicity assay, non-senescent HCA2; format: cell-based; settings: 0, 2.5, 10 μM, 9 days
Experimental: (§1) Foreskin fibroblast cell lines HCA2 and BJ, lung fibroblast cell line IMR90, and mouse embryonic fibroblasts were seeded in six-well plates and induced to senesce with 10 Gy of ionizing radiation (IR) or a 24 hr treatment with doxorubicin (Doxo). Senescent phenotype was allowed to develop for at least 7 days, at which point a cell count was made to determine the baseline number of cells. Nutlin-3a treatment was then initiated for a period of at least 9 days. Media alone or media with drug as appropriate was refreshed at least every three days. At the end of the assay time period, cells are counted. Each condition was seeded in three plate wells and counted independently. Initial cell count serves as a control to determine the induction of senescence, as compared to the last day count without nutlin treatment. Initial non-senescent cell count serves as a proxy to determine Nutlin-3a toxicity.
(§2) Non-senescent foreskin fibroblasts (HCA2), lung fibroblasts (IMR90), and mouse embryonic fibroblasts (MEF) were treated with varying concentrations (0, 2.5 μM, and 10 μM) of Nutlin-3a for a period of 9 days to assess Nutlin-3a toxicity. Cell counts were taken at the start (NS start) and end of Nutlin-3a treatment. The difference between counts of cells not treated with Nutlin-3a on day 9 (NS 0) and cell counts determined at day zero (NS start) reflects the cell growth over the indicated time period. […]

[2] = system: non-senescent mouse embryonic fibroblasts (Non Sen MEFs); experiment: Cell count toxicity assay, non-senescent MEF; format: cell-based; settings: 0, 2.5, 10 μM, 9 days
Experimental: as §1, §2

[3] = system: non-senescent pre-adipocytes (Non Sen Pread); experiment: Cell count toxicity assay, non-senescent pre-adipocytes; format: cell-based; settings: 0, 2.5, 10 μM, 11 days
Experimental: Non-senescent aortic endothelial (Endo Aort) cells and pre-adipocytes (Pread) were also treated with varying concentrations (0, 2.5 μM, and 10 μM) of Nutlin-3a for a period of 11 days to assess Nutlin-3a toxicity, as described above. Cell counts were taken at the start at Day 0 (NS start) and at the end of Nutlin-3a treatment (NS 0). The difference between counts of cells not treated with Nutlin-3a on day 11 (NS 0) and cell counts from NS start reflects the cell growth over the indicated time period. […] Decrease in apparent survival between NS 0 and NS 2.5 and between NS 0 and NS 10 reflects a decrease in cell growth.

[4] = system: IL-6 positive senescent IMR90 cells; experiment: IL-6 immunofluorescence in irradiated senescent IMR90 cells; format: cell-based, human
Experimental: Primary human fibroblast (IMR90) cells were induced to senesce by applying 10 Gy of irradiation. Seven days after irradiation (Day 0), cells were treated with 10 μM Nutlin-3a or vehicle (DMSO) for nine days (Day 9). The drug or vehicle was refreshed every three days. Drug/vehicle was removed at Day 9 and the cells were cultured for an additional three days (Day 12). Cells were then fixed with 4% paraformaldehyde and stained by immunofluorescence with a specific anti-IL-6 antibody (R&D, AF-206-NA). Cells were counterstained with DAPI for nuclear visualization. The percent IL-6 positive cells is illustrated in FIG. 12A. IL-6 positive cells were determined in an unbiased manner using CellProfiler software. Three different cultures were assessed. Non-senescent cells had no detectable cells IL-6 production while senescent cells were about 8% positive at day 9 after vehicle (DMSO) treatment (16 days after irradiation). […] At day 12, 3 days after Nutlin-3a was removed and 19 days after irradiation, IL-6 positive cells in the vehicle control were about 9% and Nutlin3a treated cells were less than 1% positive for IL-6.

[5] = system: LDLR-/-/3MR double transgenic mice fed a HFD; experiment: Atherosclerosis model, LDLR-/-/3MR double transgenic mice fed a HFD; format: in vivo, mouse; settings: vs LDLR-/- HFD controls
Experimental: The study illustrated in FIG. 43B assessed the extent to which […] based clearance of senescent cells from LDLR^−/−/3MR double transgenic mice improves pre-existing atherogenic disease. LDLR^−/−/3MR double transgenic mice (10 weeks) and LDLR^−/− single transgenic mice (10 weeks) are fed a high fat diet beginning at Week 0 until Week 12. Gancyclovir is administered to both groups of mice (25 mg/kg intraperitoneally) from weeks 12-13 and weeks 14-15. At week 16, the level of plaque and the number of senescent cells in the plaques are determined.

[6] = system: p16-3MR mice treated with paclitaxel; experiment: Voluntary exercise (wheel counts) after paclitaxel in p16-3MR mice; format: in vivo, mouse; settings: ABT-263 100 mg/kg i.p. daily 7 days; ganciclovir 25 mg/kg i.p. daily 3 days
Experimental: The capability of a senolytic agent, such as ABT-263, to reduce chemotherapy related side effects, such as fatigue, was examined in p16-3MR transgenic mice. In addition to doxorubicin, paclitaxel also induces cellular senescence when administered to animals. See Example 2 for a description of the p16-3MR transgenic mouse model.
In this experiment, paclitaxel was administered to groups of p16-3mr mice (n=4) three times, every two days. Two days after the third dose of paclitaxel, ganciclovir was administered daily for three days (days 1, 2, and 3) intraperitoneally at 25 mg/kg. ABT-263 (100 mg/kg) was administered intraperitoneally daily for seven days after paclitaxel administration. Two days after the last dose of ABT-263, all groups of animals were housed in metabolic cages (promethion, sable systems international, Las Vegas, NV) to monitor voluntary exercise as determined by wheel counts. Data were collected and analyzed two days later. Clearance of senescent cells by ABT-263 and ganciclovir restored approximately 70% of wheel count reduction caused by chemotherapy treatment.

[7] = system: p16-3MR mice fed a high fat diet; experiment: Glucose tolerance and insulin sensitivity in p16-3MR mice fed a high fat diet; format: in vivo, mouse
Experimental: Groups of p16-3MR mice (n=9) were fed a high fat diet for four months mice or a regular chow diet. Animals were then treated with ganciclovir (3 rounds of 25 mg/kg ganciclovir administered daily for five consecutive days) or vehicle. A glucose bolus was given at time zero, and blood glucose was monitored at 20, 30, 60, and 120 minutes after delivering glucose to determine glucose disposal (see FIG. 69A). […] Insulin sensitivity was also determined (Insulin Tolerance Testing (ITT)). […] Changes in weight, body composition, and food intake were also monitored.

[8] = 3 rounds of 25 mg/kg daily for five days, vs vehicle

SMILES	Proliferation (percent growth) [1]	Toxicity (cell number vs starting level) [1]	Proliferation (percent growth) [2]	Toxicity (cell number vs starting level) [2]	Proliferation (percent growth) [3]	Toxicity (cell number vs starting level) [3]	Percent IL-6 positive cells ([4]; 10 μM, Day 9, vehicle about 8%)	Percent IL-6 positive cells ([4]; Day 12, 3 days after drug removal, vehicle about 9%)	% of the aorta covered with plaque ([5]; 25 mg/kg i.p. weeks 12-13 and 14-15)	Plaque cross-sectional area ([5]; 25 mg/kg i.p.)	Restoration of wheel count reduction caused by chemotherapy [6]	Insulin Tolerance Testing: blood glucose ([7]; 0, 14, 30, 60, and 120 minutes)	Glucose tolerance test AUC [7, 8]	Hemoglobin A1c [7, 8]
COc1ccc(C2=N[C@@H](c3ccc(Cl)cc3)[C@@H](c3ccc(Cl)cc3)N2C(=O)N2CCNC(=O)C2)c(OC(C)C)c1 [Nutlin-3a]	reduces proliferation	non-toxic	reduces proliferation	non-toxic	reduces proliferation	non-toxic	below 5%	less than 1%	–	–	–	–	–	–
Nc1nc(O)c2ncn(COC(CO)CO)c2n1 [ganciclovir]	–	–	–	–	–	–	–	–	reduces the % of the aorta covered with plaque	reduced the plaque cross-sectional area	approximately 70%	greater decrease in blood glucose	significantly lower	lower
